Source: PMC5218480 (PLoS ONE, 2017)

Test system: MV-4-11 cells
Experiment: Gene expression microarray analysis (Affymetrix PrimeView) and GSEA
Format: cell-based, human
Design: RFU PODN (11730768_x_at) / Fold change /veh PODN (11730768_x_at) / RFU LINC00158 (11744669_a_at) / Fold change /veh LINC00158 (11744669_a_at) / RFU DUSP10 (11751237_a_at) / Fold change /veh DUSP10 (11751237_a_at) / RFU ID3 (11757404_x_at) / Fold change /veh ID3 (11757404_x_at) / RFU PLEKHG5 (11737974_s_at) / Fold change /veh PLEKHG5 (11737974_s_at) / RFU LRRC4B (11730491_at) / Fold change /veh LRRC4B (11730491_at) / RFU GIMAP4 (11747438_a_at) / Fold change /veh GIMAP4 (11747438_a_at) / RFU KRT8 (11758183_x_at) / Fold change /veh KRT8 (11758183_x_at) / RFU CNN1 (11734310_a_at) / Fold change /veh CNN1 (11734310_a_at) / RFU VPS37D (11726825_at) / Fold change /veh VPS37D (11726825_at) / RFU C10orf10 (11716522_x_at) / Fold change /veh C10orf10 (11716522_x_at) / RFU KIR2DL2 /// KIR2DL4 /// KIR2DL5A /// KIR2DL5B /// KIR2DS1 /// KIR2DS2 /// KIR2DS3 /// KIR2DS4 /// KIR3DL3 /// KIR3DL3 /// KIR3DS1 (11738374_at) / Fold change /veh KIR2DL2 /// KIR2DL4 /// KIR2DL5A /// KIR2DL5B /// KIR2DS1 /// KIR2DS2 /// KIR2DS3 /// KIR2DS4 /// KIR3DL3 /// KIR3DL3 /// KIR3DS1 (11738374_at) / RFU C1QL1 (11718748_at) / Fold change /veh C1QL1 (11718748_at) / RFU TMPRSS4 (11747572_a_at) / Fold change /veh TMPRSS4 (11747572_a_at) / RFU HAMP (11756126_x_at) / Fold change /veh HAMP (11756126_x_at) / RFU RNFT2 (11725882_a_at) / Fold change /veh RNFT2 (11725882_a_at) / RFU NR4A2 (11747474_a_at) / Fold change /veh NR4A2 (11747474_a_at) / RFU ABCC12 (11746883_a_at) / Fold change /veh ABCC12 (11746883_a_at) / RFU TMEM136 (11760407_x_at) / Fold change /veh TMEM136 (11760407_x_at) / RFU CLDN22 /// WWC2 (11732394_at) / Fold change /veh CLDN22 /// WWC2 (11732394_at) / RFU HLA-DPB1 (11760878_x_at) / Fold change /veh HLA-DPB1 (11760878_x_at) / RFU SPINT1 (11716480_a_at) / Fold change /veh SPINT1 (11716480_a_at) / RFU GAP43 (11754022_s_at) / Fold change /veh GAP43 (11754022_s_at) / RFU A4GNT (11735810_at) / Fold change /veh A4GNT (11735810_at) / RFU PRB3 (11715151_x_at) / Fold change /veh PRB3 (11715151_x_at) / RFU TUBB4B (11761932_at) / Fold change /veh TUBB4B (11761932_at) / RFU CAPN14 (11732068_a_at) / Fold change /veh CAPN14 (11732068_a_at) / RFU TMCC2 (11721928_a_at) / Fold change /veh TMCC2 (11721928_a_at) / RFU IRGQ (11745062_a_at) / Fold change /veh IRGQ (11745062_a_at) / RFU FAM174B (11720279_a_at) / Fold change /veh FAM174B (11720279_a_at) / RFU TMPRSS4 (11748680_a_at) / Fold change /veh TMPRSS4 (11748680_a_at) / RFU FAM212B (11763350_a_at) / Fold change /veh FAM212B (11763350_a_at) / RFU PLEKHG5 (11743358_a_at) / Fold change /veh PLEKHG5 (11743358_a_at) / RFU ZSCAN30 (11745921_a_at) / Fold change /veh ZSCAN30 (11745921_a_at) / RFU CMKLR1 (11741424_a_at) / Fold change /veh CMKLR1 (11741424_a_at) / RFU LOC101060620 /// MAPK8IP1 (11723275_at) / Fold change /veh LOC101060620 /// MAPK8IP1 (11723275_at) / RFU SPTSSB (11747773_x_at) / Fold change /veh SPTSSB (11747773_x_at) / RFU PRSS12 (11739890_at) / Fold change /veh PRSS12 (11739890_at) / RFU BIN1 (11741810_x_at) / Fold change /veh BIN1 (11741810_x_at) / RFU WNT11 (11732464_a_at) / Fold change /veh WNT11 (11732464_a_at) / RFU C10orf10 (11716521_a_at) / Fold change /veh C10orf10 (11716521_a_at) / RFU C5orf56 (11738089_at) / Fold change /veh C5orf56 (11738089_at) / RFU CYB561 (11721691_x_at) / Fold change /veh CYB561 (11721691_x_at) / RFU ANKRD19P (11752326_a_at) / Fold change /veh ANKRD19P (11752326_a_at) / RFU OR2T12 /// OR2T33 /// OR2T8 (11738714_s_at) / Fold change /veh OR2T12 /// OR2T33 /// OR2T8 (11738714_s_at) / RFU VCAN (11748164_a_at) / Fold change /veh VCAN (11748164_a_at) / RFU JSRP1 (11732532_at) / Fold change /veh JSRP1 (11732532_at) / RFU KRTAP10-11 (11738290_x_at) / Fold change /veh KRTAP10-11 (11738290_x_at) / RFU MYO3A (11730013_a_at) / Fold change /veh MYO3A (11730013_a_at) / RFU EBF3 (11725865_a_at) / Fold change /veh EBF3 (11725865_a_at) / RFU CAMK2N1 (11719241_x_at) / Fold change /veh CAMK2N1 (11719241_x_at) / RFU C5orf56 (11738088_a_at) / Fold change /veh C5orf56 (11738088_a_at) / RFU OLFML3 (11715873_a_at) / Fold change /veh OLFML3 (11715873_a_at) / RFU LOC100653217 /// NTM (11731650_a_at) / Fold change /veh LOC100653217 /// NTM (11731650_a_at) / RFU MAPK11 (11762145_a_at) / Fold change /veh MAPK11 (11762145_a_at) / RFU FIZ1 (11724087_x_at) / Fold change /veh FIZ1 (11724087_x_at) / RFU OASL (11726364_x_at) / Fold change /veh OASL (11726364_x_at) / RFU SOX15 (11748057_x_at) / Fold change /veh SOX15 (11748057_x_at) / RFU CD79A (11719716_a_at) / Fold change /veh CD79A (11719716_a_at) / RFU HIST1H1D (11736915_at) / Fold change /veh HIST1H1D (11736915_at) / RFU CASKIN2 (11723855_a_at) / Fold change /veh CASKIN2 (11723855_a_at) / RFU LOC730098 (11760151_x_at) / Fold change /veh LOC730098 (11760151_x_at) / RFU OR4N2 (11742367_at) / Fold change /veh OR4N2 (11742367_at) / RFU PRRT2 (11749266_a_at) / Fold change /veh PRRT2 (11749266_a_at) / RFU SNX32 (11753110_a_at) / Fold change /veh SNX32 (11753110_a_at) / RFU CDHR5 (11726645_a_at) / Fold change /veh CDHR5 (11726645_a_at) / RFU RCAN1 (11760418_a_at) / Fold change /veh RCAN1 (11760418_a_at) / RFU FAM167A (11723789_a_at) / Fold change /veh FAM167A (11723789_a_at) / RFU FAM26E (11764081_at) / Fold change /veh FAM26E (11764081_at) / RFU ISYNA1 (11749810_s_at) / Fold change /veh ISYNA1 (11749810_s_at) / RFU ACY1 (11761880_at) / Fold change /veh ACY1 (11761880_at) / RFU 11764098_at / Fold change /veh 11764098_at / RFU SAMD14 (11745864_x_at) / Fold change /veh SAMD14 (11745864_x_at) / RFU NPB (11741838_a_at) / Fold change /veh NPB (11741838_a_at) / RFU TMPRSS6 (11731388_a_at) / Fold change /veh TMPRSS6 (11731388_a_at) / RFU KRTAP10-2 (11738614_at) / Fold change /veh KRTAP10-2 (11738614_at) / RFU ARHGAP8 /// PRR5-ARHGAP8 (11727945_x_at) / Fold change /veh ARHGAP8 /// PRR5-ARHGAP8 (11727945_x_at) / RFU KRTAP5-7 /// NADSYN1 (11734609_at) / Fold change /veh KRTAP5-7 /// NADSYN1 (11734609_at) / RFU RASL12 (11751679_a_at) / Fold change /veh RASL12 (11751679_a_at) / RFU CDKN2B (11736163_a_at) / Fold change /veh CDKN2B (11736163_a_at) / RFU PRF1 (11729649_at) / Fold change /veh PRF1 (11729649_at) / RFU, ZNF638 /// ZNF638-IT1 / Fold change vs veh, ZNF638 /// ZNF638-IT1 / RFU, PANK3 / Fold change vs veh, PANK3 / RFU, SH3YL1 / Fold change vs veh, SH3YL1 / RFU, ZEB2 / Fold change vs veh, ZEB2 / RFU, NRIP1 / Fold change vs veh, NRIP1 / RFU, PTTG1IP / Fold change vs veh, PTTG1IP / RFU, CAPN2 / Fold change vs veh, CAPN2 / RFU, MED14 / Fold change vs veh, MED14 / RFU, SNORA58 / Fold change vs veh, SNORA58 / RFU, C1orf63 / Fold change vs veh, C1orf63 / RFU, LRRFIP1 / Fold change vs veh, LRRFIP1 / RFU, NDUFAF7 / Fold change vs veh, NDUFAF7 / RFU, SLC12A2 / Fold change vs veh, SLC12A2 / RFU, IBTK / Fold change vs veh, IBTK / RFU, ESF1 / Fold change vs veh, ESF1 / Fold change vs veh, TMEM50B / RFU, TAOK1 / Fold change vs veh, TAOK1 / RFU, ACBD3 / Fold change vs veh, ACBD3 / RFU, TMA16 / Fold change vs veh, TMA16 / RFU, RWDD3 / Fold change vs veh, RWDD3 / RFU, BCAT1 / Fold change vs veh, BCAT1 / RFU, EDEM3 / Fold change vs veh, EDEM3 / RFU, TMEM33 / Fold change vs veh, TMEM33 / RFU, WDR75 / Fold change vs veh, WDR75 / RFU, AHCTF1 / Fold change vs veh, AHCTF1 / RFU, TFRC / Fold change vs veh, TFRC / RFU, ZDHHC17 / Fold change vs veh, ZDHHC17 / RFU, NOM1 / Fold change vs veh, NOM1 / RFU, ARL8B / Fold change vs veh, ARL8B / RFU, ZBTB11 / Fold change vs veh, ZBTB11 / RFU, TAMM41 / Fold change vs veh, TAMM41 / RFU, KIAA1704 /// LOC100996395 / Fold change vs veh, KIAA1704 /// LOC100996395 / RFU, ING1 / Fold change vs veh, ING1 / RFU, TRMT61B / Fold change vs veh, TRMT61B / RFU, FUBP3 / Fold change vs veh, FUBP3 / RFU, TP53 / Fold change vs veh, TP53 / RFU, TNKS2 / Fold change vs veh, TNKS2 / RFU, ZFP14 / Fold change vs veh, ZFP14 / RFU, ACTR2 / Fold change vs veh, ACTR2 / RFU, PPP3R1 / Fold change vs veh, PPP3R1 / RFU, PIK3R1 / Fold change vs veh, PIK3R1 / RFU, HNRNPA1 / Fold change vs veh, HNRNPA1 / RFU, RNF170 / Fold change vs veh, RNF170 / RFU, ZNF28 / Fold change vs veh, ZNF28 / RFU, RNGTT / Fold change vs veh, RNGTT / RFU, OGT / Fold change vs veh, OGT / RFU, BRD1 / Fold change vs veh, BRD1 / RFU, MARS / Fold change vs veh, MARS / RFU, ZNF655 / Fold change vs veh, ZNF655 / RFU, FAHD1 / Fold change vs veh, FAHD1 / RFU, BDP1 / Fold change vs veh, BDP1 / RFU, LRRCC1 / Fold change vs veh, LRRCC1 / RFU, ARID1A / Fold change vs veh, ARID1A / RFU, ZNF146 / Fold change vs veh, ZNF146 / RFU, ZNF330 / Fold change vs veh, ZNF330 / RFU, GPN3 / Fold change vs veh, GPN3 / RFU, C9orf123 / Fold change vs veh, C9orf123 / RFU, N4BP2L2 / Fold change vs veh, N4BP2L2 / RFU, ARFIP1 / Fold change vs veh, ARFIP1 / RFU, FAM179B / Fold change vs veh, FAM179B / RFU, BCL10 / Fold change vs veh, BCL10 / RFU, UHRF1BP1L / Fold change vs veh, UHRF1BP1L / RFU, BET1 / Fold change vs veh, BET1 / RFU, CNOT2 / Fold change vs veh, CNOT2 / RFU, ZNF268 / Fold change vs veh, ZNF268 / Fold change vs veh, ZNF507 / RFU, DGCR2 / Fold change vs veh, DGCR2 / RFU, WDSUB1 / Fold change vs veh, WDSUB1 / Fold change vs veh, HSP90B1 /// MIR3652 / RFU, ADSS / Fold change vs veh, ADSS / RFU, GK / Fold change vs veh, GK / RFU, ZNF148 / Fold change vs veh, ZNF148 / RFU, TAF9 / Fold change vs veh, TAF9 / RFU, SLC1A5 / Fold change vs veh, SLC1A5 / RFU, SLMO2 / Fold change vs veh, SLMO2 / RFU, ABCC4 / Fold change vs veh, ABCC4 / RFU, LOC101060439 /// RAP1B / Fold change vs veh, LOC101060439 /// RAP1B / RFU, RFX7 / Fold change vs veh, RFX7 / RFU, GTPBP10 / Fold change vs veh, GTPBP10 / RFU, CNEP1R1 / Fold change vs veh, CNEP1R1 / RFU, BIVM-ERCC5 /// ERCC5 / Fold change vs veh, BIVM-ERCC5 /// ERCC5 / RFU, ILF3 / Fold change vs veh, ILF3 / RFU 11762660_at / Fold change /veh 11762660_at / RFU VCAN (11757783_s_at) / Fold change /veh VCAN (11757783_s_at) / RFU DDX43 (11728927_at) / Fold change /veh DDX43 (11728927_at) / RFU KRT8 (11758188_x_at) / Fold change /veh KRT8 (11758188_x_at) / RFU NKD1 (11759106_at) / Fold change /veh NKD1 (11759106_at) / RFU SRD5A1 (11742802_a_at) / Fold change /veh SRD5A1 (11742802_a_at) / RFU TPSAB1 /// TPSB2 (11721975_s_at) / Fold change /veh TPSAB1 /// TPSB2 (11721975_s_at) / RFU GSTM3 (11746129_a_at) / Fold change /veh GSTM3 (11746129_a_at) / RFU IL23R (11737362_x_at) / Fold change /veh IL23R (11737362_x_at) / RFU TMEM51 (11727254_a_at) / Fold change /veh TMEM51 (11727254_a_at) / RFU PIWIL2 (11732686_x_at) / Fold change /veh PIWIL2 (11732686_x_at) / RFU ORM1 (11744905_x_at) / Fold change /veh ORM1 (11744905_x_at) / RFU CCDC152 (11743942_at) / Fold change /veh CCDC152 (11743942_at) / RFU ECM1 (11717891_a_at) / Fold change /veh ECM1 (11717891_a_at) / RFU IL23R (11748794_a_at) / Fold change /veh IL23R (11748794_a_at) / RFU TNFAIP8L3 (11732012_x_at) / Fold change /veh TNFAIP8L3 (11732012_x_at) / RFU MBOAT4 (11741988_at) / Fold change /veh MBOAT4 (11741988_at) / RFU 11764193_at / Fold change /veh 11764193_at / RFU TMEM53 (11763286_at) / Fold change /veh TMEM53 (11763286_at) / RFU MAGEB2 (11727129_at) / Fold change /veh MAGEB2 (11727129_at) / RFU TMEM200A (11744735_a_at) / Fold change /veh TMEM200A (11744735_a_at) / RFU CCDC152 (11751479_a_at) / Fold change /veh CCDC152 (11751479_a_at) / RFU FAM211A (11726209_a_at) / Fold change /veh FAM211A (11726209_a_at) / RFU RGS16 (11746705_a_at) / Fold change /veh RGS16 (11746705_a_at) / RFU VCAN (11755009_s_at) / Fold change /veh VCAN (11755009_s_at) / RFU RHOB (11743442_s_at) / Fold change /veh RHOB (11743442_s_at) / RFU RGS16 (11720943_a_at) / Fold change /veh RGS16 (11720943_a_at) / RFU RGS16 (11720944_at) / Fold change /veh RGS16 (11720944_at) / RFU, VPS4B / Fold change vs veh, VPS4B / RFU, CREB1 / Fold change vs veh, CREB1 / RFU, DNAJC13 / Fold change vs veh, DNAJC13 / RFU, GNAQ / Fold change vs veh, GNAQ / RFU, CDK5R1 / Fold change vs veh, CDK5R1 / RFU, ZRANB3 / Fold change vs veh, ZRANB3 / RFU, CUL4A / Fold change vs veh, CUL4A / RFU, CCNY / Fold change vs veh, CCNY / RFU, UFL1 / Fold change vs veh, UFL1 / RFU, COG3 / Fold change vs veh, COG3 / RFU, DIAPH2 / Fold change vs veh, DIAPH2 / RFU, SKA2 / Fold change vs veh, SKA2 / RFU, AFF3 / Fold change vs veh, AFF3 / RFU, LMF1 / Fold change vs veh, LMF1 / RFU, IPO11 / Fold change vs veh, IPO11 / RFU, DFFB / Fold change vs veh, DFFB / RFU, FOXP1 / Fold change vs veh, FOXP1 / RFU, CARD8 / Fold change vs veh, CARD8 / RFU, STRN3 / Fold change vs veh, STRN3 / RFU, ADK / Fold change vs veh, ADK / RFU, RASSF2 / Fold change vs veh, RASSF2 / RFU, WIPF1 / Fold change vs veh, WIPF1 / RFU, LARP1B / Fold change vs veh, LARP1B / RFU, RASA1 / Fold change vs veh, RASA1 / RFU, RB1 / Fold change vs veh, RB1 / RFU, PPFIA1 / Fold change vs veh, PPFIA1 / RFU, MAT2A / Fold change vs veh, MAT2A / RFU, CCT5 / Fold change vs veh, CCT5 / RFU, WDR92 / Fold change vs veh, WDR92 / RFU, CUX1 / Fold change vs veh, CUX1 / RFU, TTC7A / Fold change vs veh, TTC7A / RFU, TMEM135 / Fold change vs veh, TMEM135 / RFU, DEPTOR / Fold change vs veh, DEPTOR / RFU, CPM / Fold change vs veh, CPM / RFU, DNAJB6 / Fold change vs veh, DNAJB6 / RFU, CACNA2D3 / Fold change vs veh, CACNA2D3 / RFU, DTX4 / Fold change vs veh, DTX4 / RFU, TFCP2 / Fold change vs veh, TFCP2 / RFU, GMCL1 /// GMCL1P1 / Fold change vs veh, GMCL1 /// GMCL1P1 / RFU, AEBP2 / Fold change vs veh, AEBP2 / RFU, SNHG1 /// SNORD22 /// SNORD25 /// SNORD26 /// SNORD27 /// SNORD28 /// SNORD29 /// SNORD31 / Fold change vs veh, SNHG1 /// SNORD22 /// SNORD25 /// SNORD26 /// SNORD27 /// SNORD28 /// SNORD29 /// SNORD31 / Fold change (Aza/veh), C12orf56 (ProbeSet 11735607_a_at) / Fold change (ACY-1035/veh), C12orf56 (ProbeSet 11735607_a_at) / Fold change (Aza/veh), FGFR1OP (ProbeSet 11751329_s_at) / Fold change (ACY-1035/veh), FGFR1OP (ProbeSet 11751329_s_at) / Fold change (Aza/veh), VPS36 (ProbeSet 11739960_a_at) / Fold change (ACY-1035/veh), VPS36 (ProbeSet 11739960_a_at) / RFU SYPL1 (11715823_x_at) / Fold change /veh SYPL1 (11715823_x_at) / RFU IGFBP7 (11715501_s_at) / Fold change /veh IGFBP7 (11715501_s_at) / RFU REEP3 (11722064_at) / Fold change /veh REEP3 (11722064_at) / RFU IGLL1 (11728026_x_at) / Fold change /veh IGLL1 (11728026_x_at): dose or concentration left out as unconfirmed
Details: ProbeSet 11764057_s_at; LIST B

Nc1ccc(-c2cccs2)cc1NC(=O)c1ccc2c(c1)cc(C1CC1)n2CCN1CCOCC1 [ACY-1035]
RFU, C1orf63: 108.16 RFU
